In assay [1] the test system is Staphylococcus aureus SA-1 (UC-76). In words: Microbroth dilution MIC testing against S. aureus. The class given is cell-based. Particulars: S. aureus UC76, CAMHB, 35° C., 16 to 24 hours, read-out: Minimum Inhibitory Concentration S. aureus UC76. The method, then:
(§1) In this example, the in vitro antibacterial activity of selected compounds was determined against S. aureus and H. influenzae. Except for clarifying or modifying statements, MIC testing followed procedures recommended by the NCCLS^1-2 or followed the descriptions cited below.
(§2) Bacterial Cultures At least the following organisms are included in the screen: Staphylococcus aureus SA-1 (UC-76) and H. influenzae HI-3542. Incubations were at 35° C. Stock bacterial cultures were maintained on Tryptic Soy Agar containing 5% Sheep Blood (BD, Becton Dickinson Microbiology Systems, Cockeysville, Md.), anaerobes were maintained on Anaerobic Blood Agar plates—CDC Formulation (BD), and fastidious organisms were maintained on Chocolate Agar II Plates (BD). Specific conditions of handling are listed below.
(§3) Standardized Organism Inocula Frozen stock cultures were used as the initial source of organisms for performing microbroth dilution MIC testing. Stock cultures were passed on their standard growth medium for at least 1 growth cycle (18 24 hours) prior to their use.
(§4) Most bacteria, unless otherwise noted, were prepared directly from agar plates in 10 mL aliquots of the appropriate broth medium. Bacterial cultures were adjusted to the opacity of a 0.5 McFarland Standard (optical density value of 0.28-0.33 on a Perkin-Elmer Lambda EZ150 Spectrophotometer Wellesley, Mass., set at a wavelength of 600 nm).). The adjusted cultures were diluted 400 fold (0.25 mL inoculum+100 mL broth) in growth media to produce a starting suspension of approximately 5×10^5 colony forming units (CFU)/mL. Unless otherwise noted, bacterial strains were tested in cation adjusted Mueller Hinton Broth (CAMHB).
(§5) Test Compound (“Drug”) Preparation Compounds were solubilized in DMSO. Drug stock solutions were prepared on the day of testing. Drugs were weight corrected for assay content where necessary.
(§6) Drug Dilution Tray Preparation Microbroth dilution stock plates were prepared in two dilution series, 64 to 0.06 μg drug/mL and 0.25 to 0.00025 μg drug/mL. For the high concentration series, 200 μL of stock solution (2 mg/mL) was added to duplicate rows of a 96-well microtiter plate. This was used as the first well in the dilution series. Serial two-fold decremental dilutions were made using a BioMek FX robot (Beckman Coulter Inc., Fullerton, Calif.) with 10 of the remaining 11 wells, each of which contained 100 μL of the appropriate solvent/diluent. Row 12 contained solvent/diluent only and served as the control. For tube one of the low concentration series, 200 μL of an 8 μg/mL stock was added to duplicate rows of a 96-well plate. Serial two-fold dilutions were made as described above.
(§7) Daughter plates were spotted (3.2 μL/well) from the stock plates listed above using the BioMek FX robot and were either used immediately or frozen at −70° C. until use.
(§8) Plate Inoculation Aerobic organisms were inoculated (100 μL volumes) into the thawed plates using the BioMek FX robot. The inoculated plates were placed in stacks of no more than 5 and covered with an empty plate. These plates were incubated 16 to 24 hours in ambient atmosphere according to CLSI guidelines^2.
Reading the Test After inoculation and incubation, the degree of bacterial growth was estimated visually with the aid of a Test Reading Mirror (Dynex Technologies 220 16) in a darkened room with a single light shining directly through the top of the microbroth tray. The MIC was the lowest concentration of drug that prevented macroscopically visible growth under the conditions of the test. Testing was performed in duplicate. When the MIC values in duplicate tests varied by 1 well (2 fold), the lower values were reported. If the MICs varied by 2 dilutions, the middle value was reported. Greater than this 4 fold variance called for the test to be repeated, after which a similar determination was applied to all values.
In general terms: Dilution methods test growth across graded concentrations, often in twofold steps.

For the next assay, the system named is H. influenzae HI-3542. As to the kind of experiment: Microbroth dilution MIC testing against H. influenzae. The class given is cell-based. The following applies: HI3542, H. influenzae 3542, Haemophilus Test Medium, 35° C., 16 to 24 hours, read-out: Minimum Inhibitory Concentration H. influenzae 3542. How it is done:
as §1, §2
Haemophilus was maintained on Chocolate Agar II Plates at room temperature in a candle jar providing a 3 5% CO2 atmosphere.
as §3, §4
Haemophilus influenzae strains were grown on Chocolate Agar II Plates and tested in Haemophilus Test Medium (Remel, Lenexa, Kans.).
as §5, §6, §7, §8
Reading the Test After inoculation and incubation, the degree of bacterial growth was estimated visually with the aid of a Test Reading Mirror (Dynex Technologies 220 16) in a darkened room with a single light shining directly through the top of the microbroth tray. The MIC was the lowest concentration of drug that prevented macroscopically visible growth under the conditions of the test. Testing was performed in duplicate. When the MIC values in duplicate tests varied by 1 well (2 fold), the lower values were reported. If the MICs varied by 2 dilutions, the middle value was reported. […]

≈ marks a conversion by molar mass, not a printed value.

Consider `COc1nccnc1-c1ccc2c(c1)CC1(C(=O)NC(=O)NC1=O)[C@@H]1[C@@H](C)O[C@@H](C)CN21` (relative stereo) [Compound 21, rel-(2S,4R,4aR)-8-(3-methoxypyrazin-2-yl)-2,4-dimethyl-1,2,4,4a-tetrahydro-2′H,6H-spiro[1,4-oxazino[4,3-a]quinoline-5,5′-pyrimidine]-2′,4′,6′(1′H,3′H)-trione], for which the MIC was 16 µg/mL (≈ 36.6 µM) in assay [1] and 32 µg/mL (≈ 73.2 µM) in the assay with H. influenzae HI-3542.

Regarding `C[C@@H]1CN2c3c(cc(-c4cnccn4)c(F)c3F)CC3(C(=O)NC(=O)NC3=O)[C@H]2[C@H](C)O1` [Compound 2, (2R,4S,4aS)-9,10-difluoro-2,4-dimethyl-8-pyrazin-2-yl-1,2,4,4a-tetrahydro-2′H,6H-spiro[1,4-oxazino[4,3-a]quinoline-5,5′-pyrimidine]-2′,4′,6′(1′H,3′H)-trione], the MIC in assay [1] turned out to be 0.125 µg/mL (≈ 0.282 µM); in the assay with H. influenzae HI-3542, 0.5 µg/mL (≈ 1.13 µM).

As for `C[C@@H]1CN2c3c(cc(-c4cnccn4)c(F)c3F)CC3(C(=O)N(CN4CCOCC4)C(=O)N(CN4CCOCC4)C3=O)[C@H]2[C@H](C)O1` [Compound 4, (2R,4S,4aS)-9,10-difluoro-2,4-dimethyl-1′,3′-bis(morpholin-4-ylmethyl)-8-pyrazin-2-yl-1,2,4,4a-tetrahydro-2′H,6H-spiro[1,4-oxazino[4,3-a]quinoline-5,5′-pyrimidine]-2′,4′,6′(1′H,3′H)-trione], the MIC in assay [1] worked out at 0.25 µg/mL (≈ 0.39 µM); with H. influenzae HI-3542, 0.5 µg/mL (≈ 0.779 µM).

For `C[C@@H]1CN2c3c(cc(-c4cnccn4)c(F)c3F)CC3(C(=O)N(CN4CCN(C)CC4)C(=O)N(CN4CCN(C)CC4)C3=O)[C@H]2[C@H](C)O1` [Compound 5, (2R,4S,4aS)-9,10-difluoro-2,4-dimethyl-1′,3′-bis[(4-methylpiperazin-1-yl)methyl]-8-pyrazin-2-yl-1,2,4,4a-tetrahydro-2′H,6H-spiro[1,4-oxazino[4,3-a]quinoline-5,5′-pyrimidine]-2′,4′,6′(1′H,3′H)-trione], the values for the MIC (in assay [1]; in the assay on H. influenzae HI-3542) were 0.5 µg/mL (≈ 0.749 µM) and 1 µg/mL (≈ 1.5 µM), respectively.

As to `C[C@@H]1CN2c3c(cc(-c4c[n+]([O-])ccn4)c(F)c3F)CC3(C(=O)NC(=O)NC3=O)[C@H]2[C@H](C)O1` [Compound 6, (2R,4S,4aS)-9,10-difluoro-2,4-dimethyl-8-(4-oxidopyrazinpyrazin-2-yl)-1,2,4,4a-tetrahydro-2′H,6H-spiro[1,4-oxazino[4,3-a]quinoline-5,5′-pyrimidine]-2′,4′,6′(1′H,3′H)-trione], the MIC in assay [1] is 0.5 µg/mL (≈ 1.09 µM); with H. influenzae HI-3542 it was 0.25 µg/mL (≈ 0.544 µM).

On to `C[C@@H]1CN2c3c(cc(-c4cnc(N)cn4)c(F)c3F)CC3(C(=O)NC(=O)NC3=O)[C@H]2[C@H](C)O1` [Compound 22, (2R,4S,4aS)-8-(5-aminopyrazin-2-yl)-9,10-difluoro-2,4-dimethyl-1,2,4,4a-tetrahydro-2′H,6H-spiro[1,4-oxazino[4,3-a]quinoline-5,5′-pyrimidine]-2′,4′,6′(1′H,3′H)-trione], for which the MIC (in assay [1]; in the assay on H. influenzae HI-3542) was 0.5 µg/mL (≈ 1.09 µM) throughout.

On to `Cc1cnc(-c2cc3c(c(F)c2F)N2C[C@@H](C)O[C@@H](C)[C@@H]2C2(C3)C(=O)NC(=O)NC2=O)cn1` [Compound 23, (2R,4S,4aS)-9,10-difluoro-2,4-dimethyl-8-(5-methylpyrazin-2-yl)-1,2,4,4a-tetrahydro-2′H,6H-spiro[1,4-oxazino[4,3-a]quinoline-5,5′-pyrimidine]-2′,4′,6′(1′H,3′H)-trione], for which the figures for the MIC (in assay [1]; in the assay on H. influenzae HI-3542) were 0.125 µg/mL (≈ 0.273 µM) and 1 µg/mL (≈ 2.19 µM), respectively.

For the molecule `COc1cnc(-c2cc3c(c(F)c2F)N2C[C@@H](C)O[C@@H](C)[C@@H]2C2(C3)C(=O)NC(=O)NC2=O)cn1` [Compound 25, (2R,4S,4aS)-9,10-difluoro-8-(5-methoxypyrazin-2-yl)-2,4-dimethyl-1,2,4,4a-tetrahydro-2′H,6H-spiro[1,4-oxazino[4,3-a]quinoline-5,5′-pyrimidine]-2′,4′,6′(1′H,3′H)-trione], the MIC in assay [1] was found to be 0.125 µg/mL (≈ 0.264 µM); in the assay with H. influenzae HI-3542, 0.5 µg/mL (≈ 1.06 µM).

With `CCOc1cnc(-c2cc3c(c(F)c2F)N2C[C@@H](C)O[C@@H](C)[C@@H]2C2(C3)C(=O)NC(=O)NC2=O)cn1` [Compound 26, (2R,4S,4aS)-8-(5-ethoxypyrazin-2-yl)-9,10-difluoro-2,4-dimethyl-1,2,4,4a-tetrahydro-2′H,6H-spiro[1,4-oxazino[4,3-a]quinoline-5,5′-pyrimidine]-2′,4′,6′(1′H,3′H)-trione], the MIC in assay [1] was 0.25 µg/mL (≈ 0.513 µM); in the assay on H. influenzae HI-3542 it was 1 µg/mL (≈ 2.05 µM).

The values are drawn from US7557100B2, “Antibacterial agents” (Pfizer Inc., priority 2005, dated 2009).
